Data: patent US20160008419A1, “Methods and Compositions for the Prevention and Treatment of Parasitic Disease” (THE BOARD OF TRUSTEES OF THE LELAND STANFORD JUNIOR …, priority 2013, published 2016)
“Also recorded” adds a separate entry of the source. Read-outs that look alike come from different tables or passages of the source.

Columns and labels:
P. falciparum [1] = conditions: cited from earlier work
[2] = after drinking alcohol; cited from earlier work
[3] = 2.5 alcoholic drinks (0.5 g/kg body weight), cited from earlier work
P. falciparum [4] = assay: Parasitemia in P. falciparum infected human red blood cells treated with acetaldehyde; format: cell-based, Plasmodium falciparum; conditions: acetaldehyde μM range (low levels); Geimsa stain and flow cytometry; preliminary data
Protocol: Parasitemia counts were determined by Geimsa stain and FACS.
[…] Exp. Res., 22: 1161-1164). […] Further, μM concentrations of 4HNE are also very common under conditions of infection, inflammation or fever (e.g. during the chill-fever cycles of malaria).

P. berghei = conditions: wild type mice; expected
From the text: In this model, infections with P. berghei ANKA and NK65 strains yield highly reproducible peripheral parasitemias and gametocytemias that are infectious to An. stephensi. […] The ALDH2*2 mouse is on a C57/BL6 background, a mouse strain that is the most susceptible among common mouse strains to hepatic infection with P. berghei (Scheller L. F., et al. Susceptibility of different strains of mice to hepatic infection with Plasmodium berghei. Infect Immun. 1994; 62(11):4844-7). […] On the day of infection, mice in each of the experimental groups are infected by bite of An. stephensi (5-10 mosquitoes/mouse).
During P. berghei infection, liver stages and accompanying pathology are evident by 39 hr post-infection (Scheller L. F., et al. Susceptibility of different strains of mice to hepatic infection with Plasmodium berghei. Infect Immun. 1994; 62(11):4844-7), peripheral parasitemia is evident by 4-5 days post-infection, and gametocytemia rises with peripheral parasitemia to become infectious to An. stephensi. Based on these parameters, mice that are not sacrificed within 39-48 hrs post-infection to assess liver stage parasites and pathology are examined daily for peripheral parasitemia beginning at 3 days post-infection.

[5] = expected
[6] = system: parasites in human RBC culture; assay: Parasite growth (parasitemia) in human RBC culture with ALDH inhibitor; format: cell-based
Protocol: FIG. 8 depicts the effect of ALDH inhibitor, disulfiram, on parasitemia in RBC. Parasitemia were determined 24 and 72 hours after the addition of disulfiram at the indicated concentrations.
Disulfirm and diadzin are used as deterrents for treatment of alcoholism, and as such, are both safe and effective ALDH2 inhibitors. […] As a negative control, pyrazole, an alcohol dehydrogenase inhibitor, at a concentration as high as 500 μM has no effect on the growth of parasites.

Compound: CC=O [acetaldehyde]
- toxicity to malaria parasites in vitro (P. falciparum [1]): toxic
- acetaldehyde concentration in human saliva [2]: ≥ 450 µM
- blood acetaldehyde level ([3]; human ALDH2*2 heterozygotic subjects): 60 µM
- blood acetaldehyde level ([3]; subjects with wild type enzyme): ~2 µM
- growth of P. falciparum / parasitemia in human RBCs (P. falciparum [4]): inhibit growth; also recorded: reduces parasitemia

Compound: CCO [ethanol]
- parasite infection, histopathology, or transmission due to ethanol treatment (P. berghei): no significant differences
- difference in blood acetaldehyde level between wild type and ALDH2*2 mutant animals ([5]; 1.5 to 4.0 g/kg acute ethanol administration): at least 5 fold
- duration of the difference in blood acetaldehyde level ([5]; after single dose of ethanol): 4 to 6 h

Compound: CCCCCC(O)C=CC=O (stereo not drawn) [4HNE, 4-Hydroxy-2-nonenal]
- reduction of growth of P. falciparum relative to controls (P. falciparum [1]; 50-100 μM): 50-100%
- toxicity to malaria parasites in vitro (P. falciparum [1]): toxic

Compound: tetraethylthioperoxydicarbonic diamide [disulfiram]
- IC50 ([6]; human RBC culture, in the absence of alcohol, read-out: inhibition of parasite growth IC50): 9.7 µM

Compound: c1cn[nH]c1 [pyrazole]
- effect on the growth of parasites ([6]; negative control, concentration as high as 500 μM): no effect
